Results reported in US20010011063A1, “Substituted 2,4-diamino-1,3,5-triazines, processes for their preparation and their use as herbicides and plant growth regulators” (priority 1999, published 2001).

Assays:
Format in all cases: in vivo
[1] = tested on: Cyperus monti, Echinochloa crus-galli and Sagitaria pygmaea; assay: Action on harmful plants in rice (paddy rice conditions); conditions: poured into the dammed water, visual scoring about three weeks after application; note: test concentration or dose not given here
Description: Transplanted and sown rice and also typical rice weeds (gramineous and broad-leaved) are cultivated in closed plastic pots in a greenhouse to the three-leaf stage (Echinochloa crus-galli 1.5-leaf) under paddy rice conditions (height of water: 2-3 cm). This is followed by treatment with the compounds according to the invention. For this purpose, the formulated active compounds are suspended, dissolved or emulsified in water and applied by pouring them into the dammed water around the test plants in different dosages.

[2] = tested on: Sinapis alba, Echinochloa crus-galli, Lolium multiforum, Stellaria media, Cyperus iria, Amaranthus retroflexus, Settaria viridis and Avena sativa; assay: Post-emergence effect on weeds (greenhouse pot test); conditions: application rate of 1 kg or less of active substance per hectare; treated at the three-leaf stage; scored visually after about 3 to 4 weeks vs untreated controls
Experimental: Seeds or rhizome pieces of mono- and dicotyledonous weeds are placed in sandy loam soil in plastic pots, covered with soil and grown in a greenhouse under good growth conditions. Three weeks after sowing, the test plants are treated at the three-leaf stage. The compounds according to the invention, formulated as wettable powders or emulsion concentrates, are sprayed, at various dosages, onto the green parts of the plants at an application rate of 600 to 800 l of water/ha (converted). After the test plants had remained in the greenhouse for about 3 to 4 weeks under optimum growth conditions, the effect of the preparations is scored visually by comparison with untreated controls. The agents according to the invention also have good herbicidal activity post-emergence against a broad spectrum of economically important weed grasses and broad-leaved weeds.

[3] = tested on: Stellaria media, Lolium multiflorum, Amaranthus retroflexus, Sinapis alba, Avena sativa and Settaria viridis; assay: Pre-emergence effect on weeds (greenhouse pot test); conditions: application rate of 1 kg or less of active substance per hectare; visually scored after 3 to 4 weeks by comparison with untreated controls
Description: Seeds or rhizome pieces of mono and dicotyledonous weed plants are placed in sandy loam soil in plastic pots and covered with soil. The compounds according to the invention which are formulated in the form of wettable powders or emulsion concentrates are then applied to the soil cover in the form of aqueous suspensions or emulsions at an application rate of 600 to 800 l of water/ha (converted), in various dosages.

CC(C)(F)c1nc(N)nc(NC(Cc2ccccc2)CC2CC2)n1 (stereo not drawn) [Example 5-2]
very good herbicidal activity: herbicidal activity against harmful plants which are typical for rice crops [1] | herbicidal activity post-emergence against harmful plants [2] | herbicidal activity pre-emergence against harmful plants [3]

CC(C)c1nc(N)nc(NC(Cc2ccccc2)CC2CC2)n1 (stereo not drawn) [Example 5-3]
very good herbicidal activity: herbicidal activity against harmful plants which are typical for rice crops [1] | herbicidal activity post-emergence against harmful plants [2] | herbicidal activity pre-emergence against harmful plants [3]

CC(C)c1nc(N)nc(NC(CCCCc2ccccc2)C2CC2)n1 (stereo not drawn) [Example 5-43]
very good herbicidal activity: herbicidal activity against harmful plants which are typical for rice crops [1] | herbicidal activity post-emergence against harmful plants [2] | herbicidal activity pre-emergence against harmful plants [3]

CC(C)(F)c1nc(N)nc(NC(CCCCc2ccccc2)C2CC2)n1 (stereo not drawn) [Example 5-44]
very good herbicidal activity: herbicidal activity against harmful plants which are typical for rice crops [1] | herbicidal activity post-emergence against harmful plants [2] | herbicidal activity pre-emergence against harmful plants [3]

CC(C)(F)c1nc(N)nc(NC(CCCCc2ccccc2)C2CCC2)n1 (stereo not drawn) [Example 5-47]
very good herbicidal activity: herbicidal activity against harmful plants which are typical for rice crops [1] | herbicidal activity post-emergence against harmful plants [2] | herbicidal activity pre-emergence against harmful plants [3]

CC(C)Cc1nc(N)nc(N[C@H](Cc2ccccc2)CC2CC2)n1 [Example 6-1]
very good herbicidal activity: herbicidal activity against harmful plants which are typical for rice crops [1] | herbicidal activity post-emergence against harmful plants [2] | herbicidal activity pre-emergence against harmful plants [3]

CC(C)(F)c1nc(N)nc(N[C@H](Cc2ccccc2)CC2CC2)n1 [Example 6-2]
very good herbicidal activity: herbicidal activity against harmful plants which are typical for rice crops [1] | herbicidal activity post-emergence against harmful plants [2] | herbicidal activity pre-emergence against harmful plants [3]

CC(C)c1nc(N)nc(N[C@H](Cc2ccccc2)CC2CC2)n1 [Example 6-3]
very good herbicidal activity: herbicidal activity against harmful plants which are typical for rice crops [1] | herbicidal activity post-emergence against harmful plants [2] | herbicidal activity pre-emergence against harmful plants [3]

CC(C)c1nc(N)nc(N[C@H](CCCCc2ccccc2)C2CC2)n1 [Example 6-43]
very good herbicidal activity: herbicidal activity against harmful plants which are typical for rice crops [1] | herbicidal activity post-emergence against harmful plants [2] | herbicidal activity pre-emergence against harmful plants [3]

CC(C)(F)c1nc(N)nc(N[C@H](CCCCc2ccccc2)C2CC2)n1 [Example 6-44]
very good herbicidal activity: herbicidal activity against harmful plants which are typical for rice crops [1] | herbicidal activity post-emergence against harmful plants [2] | herbicidal activity pre-emergence against harmful plants [3]

CC(C)(F)c1nc(N)nc(N[C@H](CCCCc2ccccc2)C2CCC2)n1 [Example 6-47]
very good herbicidal activity: herbicidal activity against harmful plants which are typical for rice crops [1] | herbicidal activity post-emergence against harmful plants [2] | herbicidal activity pre-emergence against harmful plants [3]
